The source of these data is patent US20230349907A1, “BIOPROBES FOR LYSYL OXIDASES AND USES THEREOF” (Pharmaxis Ltd., priority 2020, published 2023).

The target of one test is Bovine LOX (Bos taurus (Bovine), UniProt P33072). Put plainly: LOX inhibition, peroxidase-coupled Amplex Red assay. It counts as biochemical. Conditions: 30 min preincubation at 37° C. The text has this:
(§1) Method to Determine the Ability of Compounds of the Invention to Inhibit LOX and LOXL1-4 from Different Sources […] S., Trackman P. C. and Kagan H. M., Reaction of aortic lysyl oxidase with beta-aminoproprionitrile. J Biol Chem 1983; 258: 4331-4338). There are five LOX family members; these are LOX, LOXL1, LOXL2, LOXL3 and LOXL4. LOX and LOXL family members can be acquired as recombinant active proteins from commercial sources, or extracted from animal tissues like bovine aorta, tendons, pig skin; or prepared from cell cultures. The inhibitory effects of the compounds of the present invention were tested against the given LOX-LOXL preparation using a high-throughput coupled colorimetric method (Holt A. and Palcic M., A peroxidase-coupled continuous absorbance plate-reader assay for flavin monoamine oxidases, copper-containing amine oxidases and related enzymes. Nat. Protoc. 2006; 1: 2498-2505). The assay was developed using either 384 or 96 well format. […] Test compounds were dissolved in DMSO and tested in a Concentration Response Curve (CRC) with 11 data points, typically in the micromolar or nanomolar range after incubation with the enzyme for 30 min at 37° C. 25 μL of a reaction mixture containing twice the KM concentration of putrescine (Sigma Aldrich, e.g. 20 mM for LOX, or 10 mM for LOXL2 and LOXL3), 120 μM Amplex Red (Sigma Aldrich) and 1.5 U/mL horseradish peroxidase (Sigma Aldrich) prepared in 1.2 M urea, 50 mM sodium borate buffer (pH 8.2) were then added to the corresponding wells. The above volumes were doubled in the case of 96 well plates. The fluorescence (RFU) was read every 2.5 m n for 30 m u […], excitation 565 nm and emission 590 nm (Optima; BMG labtech). The slope of the kinetics for each well was calculated using MARS data analysis software (BMG labtech) and this value was used to deduce the IC50 value (Dotmatics).

The target of the next test is rhLOXL2 (Homo sapiens (Human), UniProt Q9Y4K0). Put plainly: LOXL2 inhibition, peroxidase-coupled Amplex Red assay. It is filed as biochemical. Conditions: 30 min preincubation at 37° C.
Sequence of rhLOXL2 (Q9Y4K0 26-774): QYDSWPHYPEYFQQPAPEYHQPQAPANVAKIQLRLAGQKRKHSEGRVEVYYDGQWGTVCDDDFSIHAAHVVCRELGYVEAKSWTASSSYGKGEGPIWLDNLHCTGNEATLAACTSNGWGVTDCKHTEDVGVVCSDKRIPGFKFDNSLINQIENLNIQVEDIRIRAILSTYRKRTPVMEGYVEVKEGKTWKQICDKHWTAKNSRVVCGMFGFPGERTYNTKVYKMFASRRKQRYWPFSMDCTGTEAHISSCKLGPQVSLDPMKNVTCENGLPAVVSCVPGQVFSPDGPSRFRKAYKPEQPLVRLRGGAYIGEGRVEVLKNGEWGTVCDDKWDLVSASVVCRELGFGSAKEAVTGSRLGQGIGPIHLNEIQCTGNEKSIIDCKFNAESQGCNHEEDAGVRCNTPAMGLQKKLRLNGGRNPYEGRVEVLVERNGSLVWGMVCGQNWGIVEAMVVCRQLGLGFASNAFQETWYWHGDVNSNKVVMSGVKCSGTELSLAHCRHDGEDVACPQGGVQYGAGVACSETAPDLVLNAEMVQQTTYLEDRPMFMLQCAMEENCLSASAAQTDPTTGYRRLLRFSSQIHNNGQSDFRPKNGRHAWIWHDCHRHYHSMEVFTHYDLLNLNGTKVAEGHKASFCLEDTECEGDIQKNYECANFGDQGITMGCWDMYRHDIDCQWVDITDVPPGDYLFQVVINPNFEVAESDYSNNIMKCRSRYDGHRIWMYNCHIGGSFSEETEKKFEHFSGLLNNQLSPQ
Text: as §1

Structures can show the parent of a compound that is named as a salt. Bounds are passed on as bounds.

Sequence of Bovine LOX (P33072 170-418): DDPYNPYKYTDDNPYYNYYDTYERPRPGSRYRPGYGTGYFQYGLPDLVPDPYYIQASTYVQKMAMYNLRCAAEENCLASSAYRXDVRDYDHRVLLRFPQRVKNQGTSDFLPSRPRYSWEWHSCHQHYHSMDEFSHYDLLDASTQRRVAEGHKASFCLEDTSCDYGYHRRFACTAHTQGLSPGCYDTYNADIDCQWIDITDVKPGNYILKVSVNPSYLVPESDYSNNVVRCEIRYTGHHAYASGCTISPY

On to `NC/C=C(\F)CS(=O)(=O)c1cccc(C(=O)Nc2cc(C(=O)N3CCN(C(=O)CCCC[C@@H]4SC[C@@H]5NC(=O)N[C@@H]54)CC3)cc(C(=O)N3CCN(C(=O)CCCC[C@@H]4SC[C@@H]5NC(=O)N[C@@H]54)CC3)c2)c1` [Compound 1-10, 3-(((Z)-4-amino-2-fluorobut-2-en-1-yl)sulfonyl)-N-(3,5-bis(4-(5-((3aS,4S,6aR)-2-oxohexahydro-1H-thieno[3,4-d]imidazol-4-yl)pentanoyl)piperazine-1-carbonyl)phenyl)benzamide hydrochloride], for which the IC50 on Bovine LOX and against rhLOXL2 was greater than 300 nM each time.
In the case of `Cc1c(-c2cccc(S(=O)(=O)N(C)C)c2)c2cc(-c3cn(-c4cc(C(=O)NCCCCCNC(=O)CCCC[C@@H]5SC[C@@H]6NC(=O)N[C@@H]65)cc(C(=O)NCCCCCNC(=O)CCCC[C@@H]5SC[C@@H]6NC(=O)N[C@@H]65)c4)nn3)ccc2n1C/C(F)=C/CN` [Compound 1-6, 5-(4-(1-((Z)-4-amino-2-fluorobut-2-en-1-yl)-3-(3-(N,N-dimethylsulfamoyl)phenyl)-2-methyl-1H-indol-5-yl)-1H-1,2,3-triazol-1-yl)-N^1,N^3-bis(5-(5-((3aS,4S,6aR)-2-oxohexahydro-1H-thieno[3,4-d]imidazol-4-yl)pentanamido)pentyl)isophthalamide hydrochloride], the results for the IC50 at Bovine LOX and at rhLOXL2 were greater than 300 nM and less than 300 nM, respectively.
In the case of `NC/C=C(\F)CS(=O)(=O)c1cccc(N(CCCc2cn(CCCCC[C@@H]3SC[C@@H]4NC(=O)N[C@@H]43)nn2)CCCc2cn(CCCCC[C@@H]3SC[C@@H]4NC(=O)N[C@@H]43)nn2)c1` [Compound 1-13, (3aS,3a'S,4S,4'S,6aR,6a′R)-4,4′-(((((3-(((Z)-4-amino-2-fluorobut-2-en-1-yl)sulfonyl)phenyl)azanediyl)bis(propane-3,1-diyl))bis(1H-1,2,3-triazole-4,1-diyl))bis(pentane-5,1-diyl))bis(tetrahydro-1H-thieno[3,4-d]imidazol-2(3H)-one) hydrochloride], the IC50 against Bovine LOX and on rhLOXL2 was greater than 300 nM in each case.
Turning to `NC/C=C(\F)CS(=O)(=O)c1cccc(OCCCc2cn(CCCCC[C@@H]3SC[C@@H]4NC(=O)N[C@@H]43)nn2)c1` [Compound 1-11, (3aS,4S,6aR)-4-(5-(4-(3-(3-(((Z)-4-amino-2-fluorobut-2-en-1-yl)sulfonyl)phenoxy)propyl)-1H-1,2,3-triazol-1-yl)pentyl)tetrahydro-1H-thieno[3,4-d]imidazol-2(3H)-one hydrochloride], the IC50 – broadly, the midpoint of a concentration-inhibition curve – at Bovine LOX is greater than 300 nM; against rhLOXL2, less than 300 nM.
The corresponding values for `Cc1c(-c2cccc(S(=O)(=O)N(C)C)c2)c2cc(C(=O)Nc3ccc4c(c3)n(Cc3cn(CCOCCOCCOCCNC(=O)CCCC[C@@H]5SC[C@@H]6NC(=O)N[C@@H]65)nn3)c(=O)n4Cc3cn(CCOCCOCCOCCNC(=O)CCCC[C@@H]4SC[C@@H]5NC(=O)N[C@@H]54)nn3)ccc2n1C/C(F)=C/CN` [Compound 1-3, hydrochloride] are greater than 300 nM and less than 300 nM.
On to `NC/C=C(\F)CS(=O)(=O)c1cccc(NCCCc2cn(CCCCC[C@@H]3SC[C@@H]4NC(=O)N[C@@H]43)nn2)c1` [Compound 1-14, hydrochloride], for which the IC50 against Bovine LOX and at rhLOXL2 was greater than 300 nM each time.
Take `NC/C=C(\F)CS(=O)(=O)c1ccc(C(=O)NCc2cn(CCOCCOCCOCCNC(=O)CCCC[C@@H]3SC[C@@H]4NC(=O)N[C@@H]43)nn2)cc1` [Compound 1-7, 4-(((Z)-4-amino-2-fluorobut-2-en-1-yl)sulfonyl)-N-((1-(13-oxo-17-((3aS,4S,6aR)-2-oxohexahydro-1H-thieno[3,4-d]imidazol-4-yl)-3,6,9-trioxa-12-azaheptadecyl)-1H-1,2,3-triazol-4-yl)methyl)benzamide hydrochloride]: the IC50 on Bovine LOX and against rhLOXL2 was greater than 300 nM throughout.
